Patent publication US4564619A, “Carbostyril derivative” (Otsuka Pharmaceutical Co., Ltd., priority 1982, dated 1986)

Assays:
[1] = tested on: collagen-induced aggregation in rabbit platelets; experiment: Inhibition of collagen-induced platelet aggregation in rabbit platelet rich plasma; format: cell-based; conditions: Oryctolagus cuniculus, read-out: Inhibition rate of collagen-induced aggregation; for inhibition at 100 µM (stock): Concentration of the test compound solution 10^-4 mole; for inhibition at 10 µM (stock): Concentration of the test compound solution 10^-5 mole
Outline: (§1)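 Citrated rabbit PRP adjusted to 600,000 platelets/μl with PPP, preincubated with test compound 1 min at 37° C, then challenged with ADP (solution prepared at 7.5×10^-5 M) or collagen (solution at 200 μg/ml). Aggregation followed by light transmittance; % inhibition relative to control aggregation rate.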

[2] = tested on: ADP-induced aggregation in rabbit platelets; experiment: Inhibition of ADP-induced platelet aggregation in rabbit platelet rich plasma; format: cell-based; conditions: Oryctolagus cuniculus, read-out: Inhibition rate of ADP-induced aggregation; for inhibition at 100 µM (stock): Concentration of the test compound solution 10^-4 mole; for inhibition at 10 µM (stock): Concentration of the test compound solution 10^-5 mole
Outline: as §1

coronary artery = experiment: Increased amount of the blood flow in coronary artery, intravenous administration, anesthetized dog; format: in vivo
Protocol: The change of blood flow in coronary artery and the change of blood pressure were measured by a method according to Yakura et al., [Japan Journal of Pharmacology, Vol. 57, pages 380-391 (1961)] and according to Taira, et al. [Clin. Exp. Pharmacol. Physiol., Vol. 6, pages 301-316, (1976)].
An adult bastard dog of either sex weighing 8-13 kg was anesthetized with sodium pentobarbital at the rate of 30 mg/kg by intraveneous administration, then the dog was fixed in supination and was theracotomized under a condition of forced breathing. After another intraveneous administration of sodium heparin at the rate of 500 U/kg, 100 U/kg per hour, the dog was subjected to the following experiments.
(2) Intraveneous administration
Morawitz's cannula was cannulated to the coronary sinus venosus through the auricula dextra cordis, and the blood in vein was circulated to the right carotid. The blood flow was measured by an electromagnetic blood flow meter equipped with a blood flow observation probe in the extracorporeal circulation path of the vein. The systolic force was measured by a systolometer (pick-up) placed at the left ventricle of heart, the blood pressure was measured from the femoral artery, and the heart rate was measured from the pulse. A compound to be tested was administered through the cannula being cannulated in femoral vein. The increased amount of the blood flow in coronary artery after the administration of the test compound is shown in Table 4, also the change of blood pressure is shown in Table 5.

[3] = Change of blood pressure, intravenous administration, anesthetized dog; format: in vivo; set-up: unit not given here; conditions: femoral artery
Outline: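 Pentobarbital-anesthetized (30 mg/kg i.v.), heparinized, thoracotomized dogs of either sex, 8-13 kg, under forced breathing; compound given via femoral vein. Coronary sinus outflow measured by electromagnetic flowmeter in an extracorporeal venous circuit to the carotid; blood pressure recorded from femoral artery.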

SMILES | inhibition at 100 µM (stock) [1] | inhibition at 10 µM (stock) [1] | inhibition at 100 µM (stock) [2] | inhibition at 10 µM (stock) [2] | Increased amount of the blood flow in coronary artery (coronary artery; 3 micrograms/kg) | Increased amount of the blood flow in coronary artery (coronary artery; 10 micrograms/kg) | Increased amount of the blood flow in coronary artery (coronary artery; 30 micrograms/kg) | Increased amount of the blood flow in coronary artery (coronary artery; 100 micrograms/kg) | Increased amount of the blood flow in coronary artery (coronary artery; 300 micrograms/kg) | Change of blood pressure ([3]; 3 micrograms/kg) | Change of blood pressure ([3]; 10 micrograms/kg) | Change of blood pressure ([3]; 30 micrograms/kg) | Change of blood pressure ([3]; 100 micrograms/kg) | Change of blood pressure ([3]; 300 micrograms/kg) | Increased amount of the blood flow in coronary artery (coronary artery; 1000 micrograms/kg)
C=CCOc1ccc(OCCCOC(=O)C2=C(C)NC(C)=C(C(=O)OC)C2c2cccc([N+](=O)[O-])c2)c2c1NC(=O)CC2 (centres unmarked) [Compound 1, 5-{3-[2,6-Dimethyl-5-methoxycarbonyl-4-(3-nitrophenyl)-1,4-dihydropyridin-3-carboxy]-propoxy}-8-propenyloxy-3,4-dihydrocarbostyril] | 51% | 15% | 19% | 1% | 4 mL/min | 34 mL/min | 63 mL/min | 62 mL/min | 42 mL/min | -6 | -17 | -36 | -42 | -46 | 
COC(=O)C1=C(C)NC(C)=C(C(=O)OCCOc2cccc3c2CCC(=O)N3)C1c1cccc([N+](=O)[O-])c1 (centres unmarked) [Compound 2, 5-{2-[2,6-Dimethyl-5-methoxycarbonyl-4-(3-nitrophenyl)-1,4-dihydropyridin-3-carboxy]-ethoxy}-3,4-dihydrocarbostyril] | 79% | 17% | 28% | 1% |  | 3 mL/min | 13 mL/min | 38 mL/min | 52 mL/min |  | -2 | -6 | -21 | -34 | 
COC(=O)C1=C(C)NC(C)=C(C(=O)OCCOc2ccc3c(c2)CCC(=O)N3)C1c1cccc([N+](=O)[O-])c1 (centres unmarked) [Compound 3, 6-{2-[2,6-Dimethyl-5-methoxycarbonyl-4-(3-nitrophenyl)-1,4-dihydropyridin-3-carboxy]-ethoxy}-3,4-dihydrocarbostyril] | 100% | 97% | 100% | 27% | 2 mL/min | 1 mL/min | 3 mL/min | 14 mL/min | 38 mL/min |  | -1 | -4 | -18 | -34 | 
COC(=O)C1=C(C)NC(C)=C(C(=O)OCCCOc2cccc3c2CCC(=O)N3)C1c1cccc([N+](=O)[O-])c1 (centres unmarked) [Compound 4, 5-{3-[2,6-Dimethyl-5-methoxycarbonyl-4-(3-nitrophenyl)-1,4-dihydropyridin-3-carboxy]-propoxy}-3,4-dihydrocarbostyril] | 23% | 11% | 16% | 4% | 3 mL/min | 8 mL/min | 22 mL/min | 62 mL/min | 90 mL/min | -5 | -15 | -25 | -34 | -51 | 
COC(=O)C1=C(C)NC(C)=C(C(=O)OCCCOc2ccc3c(c2)CCC(=O)N3)C1c1cccc([N+](=O)[O-])c1 (centres unmarked) [Compound 5, 6-{3-[2,6-Dimethyl-5-methoxycarbonyl-4-(3-nitrophenyl)-1,4-dihydropyridin-3-carboxy]-propoxy}-3,4-dihydrocarbostyril] | 38% | 12% | 20% | 4% | 3 mL/min | 12 mL/min | 47 mL/min | 89 mL/min | 77 mL/min |  |  |  |  |  | 
COC(=O)C1=C(C)NC(C)=C(C(=O)OCCCOc2ccc3c(c2)NC(=O)CC3)C1c1cccc([N+](=O)[O-])c1 (centres unmarked) [Compound 6, 7-{3-[2,6-Dimethyl-5-methoxycarbonyl-4-(3-nitrophenyl)-1,4-dihydropyridin-3-carboxy]-propoxy}-3,4-dihydrocarbostyril] | 19% | 3% | 15% | 6% |  | 3 mL/min | 25 mL/min | 58 mL/min | 64 mL/min | -3 | -5 | -15 | -32 | -44 | 
COC(=O)C1=C(C)NC(C)=C(C(=O)OCCCOc2ccc(O)c3c2CCC(=O)N3)C1c1cccc([N+](=O)[O-])c1 (centres unmarked) [Compound 7, 5-{3-[2,6-Dimethyl-5-methoxycarbonyl-4-(3-nitrophenyl)-1,4-dihydropyridin-3-carboxy]-propoxy}-8-hydroxy-3,4-dihydrocarbostyril] | 15% | 3% | 14% | 3% |  |  | 1 mL/min | 15 mL/min | 47 mL/min |  | -2 | -4 | -9 | -14 | 
COC(=O)C1=C(C)NC(C)=C(C(=O)OCCN(C(=O)CCCOc2cccc3[nH]c(=O)ccc23)C2CCCCC2)C1c1cccc([N+](=O)[O-])c1 (centres unmarked) [Compound 33, N--{2-[1,4-Dihydro-2,6-dimethyl-5-methoxycarbonyl-4-(3-nitrophenyl)pyridin-3-carboxy]ethyl}-N--cyclohexyl-4-(5-carbostyriloxy)butyramide] | 100% | 34% | 98% | 25% |  |  |  | 1 mL/min | 4 mL/min |  |  |  |  |  | 48 mL/min
COC(=O)C1=C(C)NC(C)=C(C(=O)OCCN(C(=O)CCCOc2ccc3[nH]c(=O)ccc3c2)C2CCCCC2)C1c1ccccc1[N+](=O)[O-] (centres unmarked) [Compound 34, N--{2-[1,4-Dihydro-2,6-dimethyl-5-methoxycarbonyl-4-(2-nitrophenyl)pyridin-3-carboxy]ethyl}-N--cyclohexyl-4-(6-carbostyriloxy)butyramide] | 100% | 100% | 94% | 98% |  |  |  | 22 mL/min | 47 mL/min |  |  |  |  |  | 54 mL/min
CCN(CCOC(=O)C1=C(C)NC(C)=C(C(=O)OC)C1c1ccccc1)C(=O)CCCOc1ccc2[nH]c(=O)ccc2c1 (centres unmarked) [Compound 36, N--[2,(1,4-Dihydro-2,6-dimethyl-5-methoxycarbonyl-4-phenylpyridin-3-carboxy)ethyl]-N--ethyl-4-(6-carbostyriloxy)butyramide] | 100% | 100% | 98% | 55% |  |  |  | 4 mL/min | 12 mL/min |  |  |  |  |  | 38 mL/min
